Legend:
[1] = target: GDP-bound NRAS wild-type protein (Homo sapiens, UniProt P01111); assay: Binding to NRAS by surface plasmon resonance (SPR), Single Cycle Kinetics; settings: for NRAS/KRAS (ratio of KD value with respect to NRAS to KD value with respect to KRAS): GDP-bound NRAS wild-type vs GDP-bound KRAS wild-type
[2] = target: GDP-bound HRAS wild-type protein (Homo sapiens, UniProt P01112); assay: Binding to HRAS by surface plasmon resonance (SPR), Single Cycle Kinetics; settings: for HRAS/KRAS (ratio of KD value with respect to HRAS to KD value with respect to KRAS): GDP-bound HRAS wild-type vs GDP-bound KRAS wild-type
Sequence of GDP-bound HRAS wild-type protein (P01112 whole entry): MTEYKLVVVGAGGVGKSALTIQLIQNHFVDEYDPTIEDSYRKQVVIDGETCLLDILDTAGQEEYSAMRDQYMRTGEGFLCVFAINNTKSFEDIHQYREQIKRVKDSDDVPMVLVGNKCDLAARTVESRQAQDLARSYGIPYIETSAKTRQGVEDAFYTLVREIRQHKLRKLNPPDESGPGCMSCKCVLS

Sequence of GDP-bound NRAS wild-type protein (P01111 whole entry): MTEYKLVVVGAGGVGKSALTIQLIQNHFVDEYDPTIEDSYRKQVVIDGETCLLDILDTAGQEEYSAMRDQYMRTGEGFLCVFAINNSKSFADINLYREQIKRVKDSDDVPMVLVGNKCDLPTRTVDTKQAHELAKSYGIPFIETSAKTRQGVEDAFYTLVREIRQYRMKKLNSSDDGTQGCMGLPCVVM

Structure (SMILES): CCC[C@H]1C(=O)N[C@@H]([C@@H](C)CC)C(=O)N(C)CC(=O)N(C)[C@H]2C/C=C\CCN(C2=O)[C@@H](Cc2ccc(C(F)(F)F)cc2)C(=O)N(C)CC(=O)N[C@@H](CCc2ccc(C(F)(F)F)c(OC)c2)C(=O)N2C[C@H](OCC)C[C@H]2C(=O)NC2(CC(C)(C)C2)C(=O)N(C)[C@@H](CC(C)(C)C)C(=O)N(C)[C@H](C(=O)N(C)C)CC(=O)N1C [PP2734]
- NRAS/KRAS (ratio of KD value with respect to GDP-bound NRAS wild-type protein to KD value with respect to KRAS) ([1]; KD ratio NRAS/KRAS, class symbols): A (a compound having 10 or more and less than 20 is denoted as A)
- HRAS/KRAS (ratio of KD value with respect to GDP-bound HRAS wild-type protein to KD value with respect to KRAS) ([2]; KD ratio HRAS/KRAS, class symbols): B (a compound having 3 or more and less than 10 is denoted as B)

Structure (SMILES): CC[C@H](C)[C@@H]1NC(=O)[C@H](C2CCC2)N(C)C(=O)C[C@@H](C(=O)N(C)CC)N(C)C(=O)[C@H](C2CCCC2)N(C)C(=O)C2(CCC2)NC(=O)[C@@H]2C[C@H](C)CN2C(=O)[C@H](CCc2cc(F)c(C(F)(F)F)c(F)c2)NC(=O)CN(C)C(=O)[C@H](Cc2ccc(C(F)(F)F)cc2)N2CC/C=C\C[C@@H](C2=O)N(C)C(=O)CN(C)C1=O [PP2082]
- NRAS/KRAS (ratio of KD value with respect to NRAS to KD value with respect to KRAS) ([1]; SPR): AA (a compound having 20 or more is denoted as AA)
- HRAS/KRAS (ratio of KD value with respect to HRAS to KD value with respect to KRAS) ([2]; SPR): A (a compound having 10 or more and less than 20 is denoted as A)

Structure (SMILES): CC[C@H](C)[C@@H]1NC(=O)[C@H](CC(C)C)N(C)C(=O)C[C@@H](C(=O)N2CCOCC2)N(C)C(=O)[C@H](C2CCCC2)N(C)C(=O)C2(CCCC2)NC(=O)[C@@H]2CCCN2C(=O)[C@H](CCc2ccc(C(F)(F)F)c(Cl)c2)NC(=O)CN(C)C(=O)[C@H](Cc2ccc(C)cc2)N2CCCCC[C@@H](C2=O)N(C)C(=O)CN(C)C1=O [PP0317]
- NRAS/KRAS (ratio of KD for GDP-bound NRAS wild-type to KD for KRAS) ([1]; KD ratio NRAS/KRAS, SPR): B (a compound having 3 or more and less than 10 is denoted as B)
- HRAS/KRAS (ratio of KD for GDP-bound HRAS wild-type to KD for KRAS) ([2]; KD ratio HRAS/KRAS, SPR): B (a compound having 3 or more and less than 10 is denoted as B)

Structure (SMILES): CCO[C@@H]1C[C@H]2C(=O)NC3(CC(C)(C)C3)C(=O)N(C)[C@@H](C(CC)CC)C(=O)N(C)[C@H](C(=O)N(C)C)CC(=O)N(C)[C@@H](C(C)C)C(=O)N[C@@H]([C@@H](C)CC)C(=O)N(C)CC(=O)N(C)[C@H]3C/C=C\CCN(C3=O)[C@@H](Cc3ccc(C(F)(F)F)cc3)C(=O)N(C)CC(=O)N[C@@H](CCc3cc(F)c(C(F)(F)F)c(F)c3)C(=O)N2C1 [PP2135]
- NRAS/KRAS (ratio of KD value with respect to NRAS to KD value with respect to KRAS) ([1]; SPR): AA (a compound having 20 or more is denoted as AA)
- HRAS/KRAS (ratio of KD value with respect to HRAS to KD value with respect to KRAS) ([2]; SPR): A (a compound having 10 or more and less than 20 is denoted as A)

Structure (SMILES): CCO[C@H](C)[C@@H]1NC(=O)[C@H](CC(C)C)N(C)C(=O)C[C@@H](C(=O)N(C)C)N(C)C(=O)[C@H](C2CCCC2)N(C)C(=O)C2(CC(C)(C)C2)NC(=O)[C@@H]2C[C@H](C)CN2C(=O)[C@H](CCc2ccc(C(F)(F)F)c(OC)c2)NC(=O)CN(C)C(=O)[C@H](Cc2ccc(C)cc2)N2CC/C=C\C[C@@H](C2=O)N(C)C(=O)CN(C)C1=O [PP2412]
- NRAS/KRAS (ratio of KD value with respect to NRAS to KD value with respect to KRAS) ([1]; SPR): A (a compound having 10 or more and less than 20 is denoted as A)
- HRAS/KRAS (ratio of KD value with respect to HRAS to KD value with respect to KRAS) ([2]; SPR): B (a compound having 3 or more and less than 10 is denoted as B)

Structure (SMILES): CCC[C@H]1C(=O)N[C@@H]([C@@H](C)CC)C(=O)N(C)CC(=O)N(C)[C@H]2C/C=C\CCN(C2=O)[C@@H](CC2CCC(F)(F)CC2)C(=O)N(C)CC(=O)N[C@@H](CCc2cc(F)c(C(F)(F)F)c(F)c2)C(=O)N2C[C@H](OCC)C[C@H]2C(=O)NC2(CC(C)(C)C2)C(=O)N(C)[C@@H](C(CC)CC)C(=O)N(C)[C@H](C(=O)N(C)C)CC(=O)N1C [PP2489]
- NRAS/KRAS (ratio of KD value with respect to NRAS to KD value with respect to KRAS) ([1]; SPR): A (a compound having 10 or more and less than 20 is denoted as A)
- HRAS/KRAS (ratio of KD value with respect to HRAS to KD value with respect to KRAS) ([2]; SPR): A (a compound having 10 or more and less than 20 is denoted as A)

Structure (SMILES): CCCOC[C@H]1C(=O)N[C@@H]([C@@H](C)CC)C(=O)N(C)CC(=O)N(C)[C@H]2C/C=C\CCN(C2=O)[C@@H](Cc2ccc(C)cc2)C(=O)N(C)CC(=O)N[C@@H](CCc2cc(F)c(C(F)(F)F)c(F)c2)C(=O)N2C[C@@H](C)C[C@H]2C(=O)NC2(CC(C)(C)C2)C(=O)N(C)[C@@H](C2CCCC2)C(=O)N(C)[C@H](C(=O)N(C)CC)CC(=O)N1C [PP2471]
- NRAS/KRAS (ratio of KD value with respect to NRAS to KD value with respect to KRAS) ([1]; SPR): A (a compound having 10 or more and less than 20 is denoted as A)
- HRAS/KRAS (ratio of KD value with respect to HRAS to KD value with respect to KRAS) ([2]; SPR): A (a compound having 10 or more and less than 20 is denoted as A)
